pIC50: −log10 of the molar value. Where two headings read alike, the source gives them in different places.
Biological target: SOS1 (Homo sapiens (Human), UniProt Q07889)
Experiment: Ras-SOS interaction assay (HTRF)
Type: biochemical
Source text: The ability of any compound of the present disclosure to reduce a Ras protein signaling output by, e.g., interfering or disrupting interaction (or binding) between SOS1 and a Ras protein can be assessed in vitro. For example, the equilibrium interaction of human SOS1 (hSOS1) with human wildtype Kras or K-Ras mutant (e.g., hK-Ras G12C mutant, or hK-RasG12C) can be assessed as a proxy or an indication for a subject compound's ability to inhibit SOS. Detection of such interaction is achieved by measuring homogenous time-resolved fluorescence resonance energy transfer (HTRF) from (i) a fluorescence resonance energy transfer (FRET) donor (e.g., antiGST-Europium) that is bound to GST-tagged K-RasG12C to (ii) a FRET acceptor (e.g., anti-6His-XL665) bound to a His-tagged hSOS1.
The assay buffer can contain 5 mM HEPES pH 7.4, 150 mM NaCl, 10 mM EDTA, 1 mM DTT, 0.05% BSA, 0.0025% (v/v) Igepal and 100 mM KF. A Ras working solution is prepared in assay buffer containing typically 10 nM of the protein construct (e.g., GST-tagged hK-RasG12C) and 2 nM of the FRET donor (e.g., antiGST-Eu(K) from Cisbio, France). A SOS1 working solution is prepared in assay buffer containing typically 10 nM of the protein construct (e.g., His-hSOS1) and 10 nM of the FRET acceptor (e.g., anti-6His-XL665 from Cisbio, France). An inhibitor control solution is prepared in assay buffer containing 10 nM of the FRET acceptor without the SOS1 protein.
A fixed reaction mixture with or without test compound is transferred into a 384-well plate. Ras working solution is added to all wells of the test plate. SOS1 working solution is added to all wells except for those that are subsequently filled the inhibitor control solution. After approximately 60 min incubation, the fluorescence is measured with a M1000Pro plate reader (Tecan) using HTRF detection (excitation 337 nm, emission 1: 620 nm, emission 2: 665 nm). Compounds are tested in duplicates at different concentrations (for example, 10 μM, 2.5 μM, 0.63 μM, 0.16 μM, 0.04 μM, 0.01 μM test compound). The ratiometric data (i.e., emission 2 divided by emission 1) is used to calculate IC50 values against SOS1 using GraphPad Prism (GraphPad software).

[1] = K-RasG13D utilized, read-out: IC50 inhibition of SOS
[2] = K-RasG13D, read-out: IC50 value against SOS1

SOS1, sequence (Q07889 564-1049): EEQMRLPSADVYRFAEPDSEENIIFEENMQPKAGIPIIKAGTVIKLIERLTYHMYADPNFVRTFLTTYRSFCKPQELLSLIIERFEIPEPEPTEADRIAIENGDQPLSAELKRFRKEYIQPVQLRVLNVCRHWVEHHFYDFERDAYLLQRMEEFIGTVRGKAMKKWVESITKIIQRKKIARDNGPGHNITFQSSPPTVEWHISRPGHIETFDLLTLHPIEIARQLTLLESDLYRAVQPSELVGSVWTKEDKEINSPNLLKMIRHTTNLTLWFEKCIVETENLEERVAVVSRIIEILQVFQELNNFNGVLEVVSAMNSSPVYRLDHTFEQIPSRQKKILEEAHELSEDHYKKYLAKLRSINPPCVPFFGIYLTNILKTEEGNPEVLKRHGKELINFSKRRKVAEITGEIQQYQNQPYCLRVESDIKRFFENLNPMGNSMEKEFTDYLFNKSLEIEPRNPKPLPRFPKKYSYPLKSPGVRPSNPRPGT

| Compound | pIC50 [1] | pIC50 [2] |
| --- | --- | --- |
| Cc1nc(N[C@H](C)c2cccc(C(F)(F)F)c2F)c2cc(N3CCN(C(C)C)CC3)nnc2n1 [Compound 107, (R)—N-(1-(2-fluoro-3-(trifluoromethyl)phenyl)ethyl)-3-(4-isopropylpiperazin-1-yl)-7-methylpyrimido[4,5-c]pyridazin-5-amine] | > 7.00 |  |
| Cc1nc(N[C@H](C)c2cccc(C(F)F)c2F)c2cc(N3CCN(C(C)C)CC3)nnc2n1 [Compound 108, (R)—N-(1-(3-(difluoromethyl)-2-fluorophenyl)ethyl)-3-(4-isopropylpiperazin-1-yl)-7-methylpyrimido[4,5-c]pyridazin-5-amine] | > 7.00 |  |
| COc1nc2nc(C)nc(N[C@H](C)c3cccc(C(F)F)c3F)c2cc1C1(C#N)CCN(Cc2ccccc2)CC1 [Compound 140, (R)-1-benzyl-4-(4-((1-(3-(difluoromethyl)-2-fluorophenyl)ethyl)amino)-7-methoxy-2-methylpyrido[2,3-d]pyrimidin-6-yl)piperidine-4-carbonitrile] | 6.00 to 7.00 |  |
| COc1nc2nc(N3CCC3)nc(N[C@H](C)c3cccc(C(F)F)c3F)c2cc1N1CCN(C(C)C)CC1 [Compound 168, (R)-2-(azetidin-1-yl)-N-(1-(3-(difluoromethyl)-2-fluorophenyl)ethyl)-6-(4-isopropylpiperazin-1-yl)-7-methoxypyrido[2,3-d]pyrimidin-4-amine] | 6.00 to 7.00 |  |
| Cc1nc(N[C@H](C)c2cccc(C(F)(F)F)c2C)c2cc(N3CCN(C(C)C)CC3)c(Cl)nc2n1 [Compound 201, (R)-7-chloro-6-(4-isopropylpiperazin-1-yl)-2-methyl-N-(1-(2-methyl-3-(trifluoromethyl)phenyl)ethyl)pyrido[2,3-d]pyrimidin-4-amine] | > 7.00 | > 7.30 |
| Cc1nc(N[C@H](C)c2cccc(C(F)F)c2F)c2cc(C3(C#N)CC3)c(NC3COC3)nc2n1 [Compound 225, (R)-1-(4-((1-(3-(difluoromethyl)-2-fluorophenyl)ethyl)amino)-2-methyl-7-(oxetan-3-ylamino)pyrido[2,3-d]pyrimidin-6-yl)cyclopropane-1-carbonitrile] | 6.00 to 7.00 |  |
| Cc1nc(N[C@H](C)c2cccc(C(F)F)c2F)c2cc(C3(C#N)CC3)c(NC3CCOCC3)nc2n1 [Compound 228, (R)-1-(4-((1-(3-(difluoromethyl)-2-fluorophenyl)ethyl)amino)-2-methyl-7-((tetrahydro-2H-pyran-4-yl)amino)pyrido[2,3-d]pyrimidin-6-yl)cyclopropane-1-carbonitrile] | 6.00 to 7.00 |  |
| C[C@@H](Nc1ncnc2nc(O[C@H]3CCOC3)c(C3(C#N)CC3)cc12)c1cccc(C(F)F)c1F [Compound 230, 1-(4-(((R)-1-(3-(difluoromethyl)-2-fluorophenyl)ethyl)amino)-7-(((S)-tetrahydrofuran-3-yl)oxy)pyrido[2,3-d]pyrimidin-6-yl)cyclopropane-1-carbonitrile] | 6.00 to 7.00 |  |
| COc1nc2nc(C)nc(N[C@H](C)c3cccc(C(F)(F)C(C)(C)OC4CN(C(=O)OC(C)(C)C)C4)c3F)c2cc1N1CCN(C(C)C)CC1 [Compound 241, tert-butyl (R)-3-((1,1-difluoro-1-(2-fluoro-3-(1-((6-(4-isopropylpiperazin-1-yl)-7-methoxy-2-methylpyrido[2,3-d]pyrimidin-4-yl)amino)ethyl)phenyl)-2-methylpropan-2-yl)oxy)azetidine-1-carboxylate] | > 7.00 |  |

Now from value to compound:

| pIC50 [1] | pIC50 [2] | Compound |
| --- | --- | --- |
| > 7.00 |  | COc1nc2nc(C)nc(N[C@H](C)c3cccc(C(F)F)c3F)c2cc1S(=O)(=O)N1CCN(C)CC1 [Compound 106, (R)—N-(1-(3-(difluoromethyl)-2-fluorophenyl)ethyl)-7-methoxy-2-methyl-6-((4-methylpiperazin-1-yl)sulfonyl)pyrido[2,3-d]pyrimidin-4-amine] |
| 6.00 to 7.00 |  | COc1nc2nc(C)nc(N[C@H](C)c3cccc(C)c3F)c2cc1[C@H]1C[C@@H](N)C1 [Compound 111, 6-((1s,3S)-3-aminocyclobutyl)-N-((R)-1-(2-fluoro-3-methylphenyl)ethyl)-7-methoxy-2-methylpyrido[2,3-d]pyrimidin-4-amine] |
| > 7.00 | > 7.30 | COc1nc2nc(C)nc(N[C@H](C)c3cccc(C(F)F)c3F)c2cc1C1CCNCC1 [Compound 121, (R)—N-(1-(3-(difluoromethyl)-2-fluorophenyl)ethyl)-7-methoxy-2-methyl-6-(piperidin-4-yl)pyrido[2,3-d]pyrimidin-4-amine] |
| > 7.00 | > 7.30 | COc1nc2nc(C)nc(N[C@H](C)c3cccc(C(F)F)c3F)c2cc1C1CCN(C(=O)NC2CNC2)CC1 [Compound 122, (R)-N-(azetidin-3-yl)-4-(4-((1-(3-(difluoromethyl)-2-fluorophenyl)ethyl)amino)-7-methoxy-2-methylpyrido[2,3-d]pyrimidin-6-yl)piperidine-1-carboxamide] |
| > 7.00 | > 7.30 | COc1nc2nc(C)nc(N[C@H](C)c3cccc(C(F)F)c3F)c2cc1C1CCN(C(=O)NC2CN(C)C2)CC1 [Compound 124, (R)-4-(4-((1-(3-(difluoromethyl)-2-fluorophenyl)ethyl)amino)-7-methoxy-2-methylpyrido[2,3-d]pyrimidin-6-yl)-N-(1-methylazetidin-3-yl)piperidine-1-carboxamide] |
| > 7.00 |  | Cc1nc(N[C@H](C)c2cccc(C(F)F)c2F)c2cc(S(=O)(=O)C3CCN(C)CC3)c(C)nc2n1 [Compound 141, (R)-N-(1-(3-(difluoromethyl)-2-fluorophenyl)ethyl)-2,7-dimethyl-6-((1-methylpiperidin-4-yl)sulfonyl)pyrido[2,3-d]pyrimidin-4-amine] |
| 6.00 to 7.00 |  | COc1nc2nc(C)nc(N[C@H](C)c3cc(F)cc(C(F)F)c3F)c2cc1C1CCS(=O)(=O)CC1 [Compound 144, (R)-4-(4-((1-(3-(difluoromethyl)-2,5-difluorophenyl)ethyl)amino)-7-methoxy-2-methylpyrido[2,3-d]pyrimidin-6-yl)tetrahydro-2H-thiopyran 1,1-dioxide] |
| > 7.00 |  | Cc1nc(N[C@H](C)c2cccc(C(F)F)c2F)c2cc(C3(C(F)F)CC3)c(OC3COC3)nc2n1 [Compound 186, (R)—N-(1-(3-(difluoromethyl)-2-fluorophenyl)ethyl)-6-(1-(difluoromethyl)cyclopropyl)-2-methyl-7-(oxetan-3-yloxy)pyrido[2,3-d]pyrimidin-4-amine] |
| 6.00 to 7.00 |  | COc1nc2nc(C)nc(N[C@H](C)c3cccc(C(F)(F)CCC4CN(C(=O)OC(C)(C)C)C4)c3F)c2cc1C1(C#N)CC1 [Compound 208, tert-butyl (R)-3-(3-(3-(1-((6-(1-cyanocyclopropyl)-7-methoxy-2-methylpyrido[2,3-d]pyrimidin-4-yl)amino)ethyl)-2-fluorophenyl)-3,3-difluoropropyl)azetidine-1-carboxylate] |
| 6.00 to 7.00 |  | COc1nc2nc(N3CC(N(C)C)C3)nc(N[C@H](C)c3cccc(C(F)F)c3F)c2cc1C1(C#N)CC1 [Compound 237, (R)-1-(4-((1-(3-(difluoromethyl)-2-fluorophenyl)ethyl)amino)-2-(3-(dimethylamino)azetidin-1-yl)-7-methoxypyrido[2,3-d]pyrimidin-6-yl)cyclopropane-1-carbonitrile] |

From patent US11648254B2 (Kumquat Biosciences Inc., priority 2021, dated 2023)
